Experiment in all cases: DTP human tumour cell line panel, 48 h
Test [1] concerns A549 NSCLC.
In test [2] the test system is OVCAR-4 ovarian.
In test [3] the test system is TK-10 renal.
Test [4] concerns OVCAR-3 ovarian.
The test system of test [5] is HCT-15 colon.
The test system of test [6] is SR leukemia.
Test [7] deals with 786-0 renal.
The subject of test [8] is UO-31 renal.
The test system of test [9] is MDA-MB-435.
Test [10] concerns MCF7 breast.

These results are taken from PubChem BioAssay (NCI).

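Values below derive from 48-hour exposures of cells grown in 96-well plates, with endpoints linearly interpolated between the two concentrations bracketing the appropriate inhibition level. At the GI50, growth is halved. Definition used: TGI = concentration required for complete inhibition of growth.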

With `Cc1cc(OCc2ccc(C(F)(F)F)cc2)c2c(c1)C(=O)C=C(NCCN1CCCC1)C2=O`, the GI50 in test [1] was 2.85 µM; in test [2] it was 4.01 µM; in [3], 6.85 µM; in test [4], 2.52 µM; in [5], 1.95 µM; in test [6], 2.6 µM. Also, the GI50 was 1.6 µM in test [7], 2.19 µM in test [8], 1.62 µM in test [9] and 1.67 µM in test [10]. Further, the TGI worked out at 9.68 µM in [1]; 15.5 µM in [2]; 22.2 µM in [3]; 6.47 µM in [4]; 4.82 µM in test [5]; 6.97 µM in test [6]. In addition, the TGI in test [7] was found to be 2.99 µM; in test [8] it was 4.93 µM; in [9], 3.02 µM; in test [10], 3.56 µM.
On to `CC(=O)OC1CC2(C)C(=CC1C1SCCS1)CCC1C2CCC2(C)C(OC(C)=O)CCC12` (stereo not given), for which the TGI in [1], in test [2], in test [3], in test [4], in test [5] and in test [6] was above 100 µM throughout. Also, the TGI in [7], in test [8], in test [9] and in [10] was above 100 µM in each case.
For `CC(C)[C@@H](C(=O)O[C@@H]1/C=C/C(=O)O[C@@H](C)CCC/C=C/[C@@H]2C[C@H](O)C[C@H]21)N(C)C`, the GI50 in test [1] was 24 µM; in test [2], 9.09 µM; in [3], 12.4 µM; in test [4] it was 6.34 µM; in [5], 16 µM; in [6], 14.9 µM. Also, the GI50 is 9.9 µM in test [7], 23.1 µM in test [8], 7.43 µM in test [9] and 11.9 µM in test [10]. Besides, the TGI in test [1] is above 100 µM; in [2], above 61.9 µM; in [3], 51.4 µM; in test [4] it was 26.7 µM; in test [5] it was 32.3 µM; in test [6], 38.1 µM. For the same molecule, the TGI in test [7] is 52.3 µM; in test [8], above 100 µM; in test [9] it was 41.4 µM; in test [10], 43.1 µM.
With `COc1ccc(C(=O)/C=C/c2ccc(OCc3cccc(C(F)(F)F)c3)c(OC)c2)cc1OC`, the GI50 in [1] was 67.7 µM; in test [2], 51.7 µM; in [3], 397 µM; in [4] it was 48.4 µM; in test [5] it was 42 µM; in test [6], 33.8 µM. The GI50 in test [7] is 67.3 µM; in test [8], 47.3 µM; in test [9], 45.8 µM; in test [10], 27.4 µM. Also, the TGI in test [1], in [2], in [3], in [4], in [5] and in [6] was above 1000 µM each time. Besides, the TGI in test [7], in test [8], in test [9] and in [10] was above 1000 µM in each case.
Consider `CC1(C)OCC2OC(n3cnc4c(N)nc(Cl)nc43)C(OS(C)(=O)=O)C2O1` (stereo not given), for which the TGI in [1], in [2], in test [3], in test [4], in test [5] and in test [6] was above 100 µM in each case. For the same molecule, the total growth inhibition concentration (TGI) in test [7], in test [8], in test [9] and in [10] was above 100 µM in each case.
Consider `Cc1nnc(N/N=C/c2ccc([N+](=O)[O-])o2)[nH]c1=O`, for which the GI50 in [1] was 2.57 µM; in test [2], 3.36 µM; in [3], 1.03 µM; in [4], 0.429 µM; in test [5], 1.86 µM; in test [6], 1.1 µM. Also, the GI50 was 0.649 µM in test [7], 0.931 µM in [8], 0.908 µM in [9] and 1.24 µM in test [10]. The TGI in test [1] is above 49.5 µM; in test [2], above 100 µM; in test [3], above 25 µM; in [4], 3.18 µM; in test [5], above 100 µM; in [6] it was above 100 µM. Also, the TGI in test [7] is 15.3 µM; in test [8], 10.8 µM; in test [9], above 100 µM; in test [10], above 100 µM.
Consider `CCC(=O)OCOc1ccc(/C=C2\CCC(CN(C)C)C2=O)cc1` (stereo not given), for which the TGI in test [1] is 40.3 µM; in test [2] it was 15.3 µM; in test [3], 22.2 µM; in [4], 8.29 µM; in test [5], 9.97 µM; in [6] it was 9.25 µM. For the same molecule, the TGI in test [7] is 6.2 µM; in test [8] it was 19 µM; in test [9], 10.6 µM; in test [10] it was 10.1 µM.
As for `CCN1CCN(c2ccc(NC(=O)Nc3nc4ccc(-c5ccccc5OC)cc4s3)cc2)CC1`, the GI50 is 1.98 µM in test [1]; 1.68 µM in [2]; 2.12 µM in test [3]; 1.64 µM in [4]; 1.2 µM in test [5]; 1.65 µM in [6]. Further, the GI50 in [7] was 1.8 µM; in [8], 1.52 µM; in test [9], 1.71 µM; in test [10] it was 1.31 µM. For the same molecule, the TGI worked out at 3.59 µM in test [1]; 3.31 µM in test [2]; 3.6 µM in [3]; 3.11 µM in [4]; 2.47 µM in test [5]; 4.31 µM in [6]. The TGI worked out at 3.28 µM in test [7], 2.92 µM in test [8], 3.14 µM in [9] and 2.86 µM in test [10].
Consider `CC1=C(CCC(C)CO)O[C@H]2C[C@H]3[C@@H]4CC[C@H]5C[C@@H](O)CC[C@]5(C)[C@H]4CC(=O)[C@]3(C)[C@@H]12` (stereo not given in full), for which the TGI was 55.7 µM in [1]; above 82.2 µM in test [2]; 46.7 µM in test [3]; above 60.9 µM in [4]; 57.6 µM in test [5]; 36.4 µM in test [6]. Besides, the TGI is 52.4 µM in test [7], 33.3 µM in [8], 54.8 µM in test [9] and above 59.4 µM in test [10].
